Laboratory results: EP1145714A1, “DRUGS” (Takeda Chemical Industries, Ltd., priority 1998, dated 2000)

System: acute and delayed vomiting induced by cisplatin in ferrets
Experiment: Acute and delayed vomiting induced by cisplatin in ferrets, oral dosing once or twice daily
Type: in vivo
Details: cisplatin 5 mg/kg i.p.
Procedure: Male 4 to 6 ferrets (1.2 to 2.2 kg) per one group were used. Cisplatin was intraperitoneally given at 5 mg/5ml/kg. 30 minutes prior to cisplatin administration and 24 and 48 hours after cisplatin administration, predetermined doses of the compound No. 3 were orally given in case of dosing once daily. 30 minutes prior to cisplatin administration and 12, 24, 36, 48 and 60 hours after cisplatin administration, predetermined doses of the compound No. 3 were orally given in case of dosing twice daily. 30 minutes prior to the dosing of the compound No. 3, a small amount of a feed was given to the animals in any of the cases. Similarly, a predetermined volume of 0.5 % methyl cellulose solution was similarly given orally to a control animal group under no fasting. A predetermined dose of ondansetron was orally given to the animals under fasting. To a control animal group of ondansetron, a predetermined volume of physiological saline was orally given to the animals under fasting. The frequency of vomiting was counted in number, up to 72 hours after cisplatin administration.
The compound No. 3 was suspended in 0.5 % methyl cellulose solution, for oral dosing at predetermined doses at a ratio of 1 ml per 1 kg body weight. An injection of ondansetron at 0.2 w/v % concentration was orally given at a predetermined volume. Additionally, 0.5 % methyl cellulose solution was orally given at a ratio of 1 ml per 1 kg body weight, while physiological saline was orally given at a ratio of 0.5 to 1.5 ml per 1 kg body weight. The data relating to the frequency of vomiting, the time period (latency) until first vomiting and the time period from the occurrence of vomiting to the termination thereof were statistically analyzed by the Dunnett test, with reference to the difference from the control group.
The acute vomiting suppression ratio, delayed vomiting suppression ratio and total vomiting suppression ratio were calculated by the following formula. [Frequency of retching or vomiting in control] - [Frequency of retching or vomiting in animals dosed with compound No. 3] / [Frequency of retching or vomiting in control] x 100 (%) [formula]

[1] = 0.3 mg/kg × 2 p.o., twice daily
[2] = 1 mg/kg p.o. twice daily, listed as compound No. 3
[3] = 3 mg/kg p.o. twice daily, listed as compound No. 3
[4] = 10 mg/kg p.o. once daily, listed as compound No. 3

In the case of `Cc1ccc(-c2c3n(c(=O)c4ncccc24)CC[C@@H](C)CN(Cc2cc(C(F)(F)F)cc(C(F)(F)F)c2)C3=O)cc1` [Cpd. No.3, (9R)-7-[3,5-bis(trifluoromethyl)benzyl]-6,7,8,9,10,11-hexahydro-9-methyl-5-(4-methylphenyl)-6,13-dioxo-13H-[1,4]diazocino[2,1-g][1,7]naphthylidine], the “On days 1-2(24-48 hours): frequency of retching and vomiting (mean ± SD)” value (from here on “On days 1-2(24-48 hours) … (mean ± SD)”) [1] is reported as 209.3 ± 14.0 b, the “On days 1-2(24-48 hours): number of ferrets with vomiting/ number of tested ferrets” value (“On days 1-2(24-48 hours): number” for short) [1] is reported as 4/4 and the “Total frequency of retching and vomiting (on days 0-2; 0-72 hours)” value (shortened to “Total frequency of retching and vomiting”) [1] is reported as 209.3 ± 14.0 b. The “Acute vomiting suppression ratio (0 to 24 hours after cisplatin dosing)” value (from here on “Acute vomiting suppression ratio”) (1 mg/kg p.o. twice daily) was 0 % NS, the “Delayed vomiting suppression ratio (24 to 72 hours after cisplatin dosing)” value (1 mg/kg p.o. twice daily) was 70 % a and the “Total vomiting suppression ratio (0 to 72 hours after cisplatin dosing)” value (shortened to “Total vomiting suppression ratio”) (1 mg/kg p.o. twice daily) was 54 % b. For the same compound, the “Delayed vomiting suppression ratio (24 to 72 hours after cisplatin dosing)” value [2] was 70%, the “Total vomiting suppression ratio” value [2] was 54% and the “Duration (in hour; mean ± SD)” value (1 mg/kg × 2 p.o., twice daily) was 64.8 ± 2.2 h. The “Latency (in hour; mean ± SD)” value (1 mg/kg × 2 p.o., twice daily) was 3.4 ± 1.1 h, the “On day 0 (0-24 hours): frequency of retching and vomiting (mean ± SD)” value (“On day 0 (0-24 hours): frequency … (mean ± SD)” below) (1 mg/kg × 2 p.o., twice daily) was 71.8 ± 20.6 and the “On day 0 (0-24 hours): number of ferrets with vomiting/ number of tested ferrets” value (“On day 0 (0-24 hours): number of ferrets” below) (1 mg/kg × 2 p.o., twice daily) was 4/4. For the same compound, the “On days 1-2(24-48 hours) … (mean ± SD)” value (1 mg/kg × 2 p.o., twice daily) was 108.0 ± 9.6 b, the “On days 1-2(24-48 hours): number” value (1 mg/kg × 2 p.o., twice daily) was 4/4 and the “Total frequency of retching and vomiting” value (1 mg/kg × 2 p.o., twice daily) was 179.8 ± 21.0 b. For the same compound, the “Delayed vomiting suppression ratio (0 to 72 hours after cisplatin dosing)” value (3 mg/kg p.o. once daily, listed as compound No. 3) was 42%, the “Acute vomiting suppression ratio” value (3 mg/kg p.o. twice daily) was 82 % NS and the “Delayed vomiting suppression ratio (24 to 72 hours after cisplatin dosing)” value (3 mg/kg p.o. twice daily) was 59 % b. For the same compound, the “Total vomiting suppression ratio” value (3 mg/kg p.o. twice daily) was 61 % b, the “Acute vomiting suppression ratio” value [3] was 82% and the “Delayed vomiting suppression ratio (24 to 72 hours after cisplatin dosing)” value [3] was 59%. The “Acute vomiting suppression ratio” value (3 mg/kg p.o., once daily) was 48 % NS, the “Delayed vomiting suppression ratio (0 to 72 hours after cisplatin dosing)” value (3 mg/kg p.o., once daily) was 42 % a and the “Delayed vomiting suppression ratio (24 to 72 hours after cisplatin dosing)” value (3 mg/kg p.o., once daily) was 40 % NS. The “Duration (in hour; mean ± SD)” value (3 mg/kg p.o., once daily) was 61.2 ± 1.2 h, the “Latency (in hour; mean ± SD)” value (3 mg/kg p.o., once daily) was 7.8 ± 1.1 h and the “On day 0 (0-24 hours): frequency … (mean ± SD)” value (3 mg/kg p.o., once daily) was 56.8 ± 18.4. For the same compound, the “On day 0 (0-24 hours): number of ferrets” value (3 mg/kg p.o., once daily) was 4/4, the “On days 1-2(24-48 hours) … (mean ± SD)” value (3 mg/kg p.o., once daily) was 209.5±23.6 and the “On days 1-2(24-48 hours): number” value (3 mg/kg p.o., once daily) was 4/4. For the same compound, the “Total frequency of retching and actual vomiting (on days 0-2; 0-72 hours)” value (3 mg/kg p.o., once daily) was 266.3 ± 20.6 a, the “Duration (in hour; mean ± SD)” value (3 mg/kg × 2 p.o., twice daily) was 40.9 ± 13.9 h and the “Latency (in hour; mean ± SD)” value (3 mg/kg × 2 p.o., twice daily) was 25.8 ± 10.7 h. For the same compound, the “On day 0 (0-24 hours): frequency … (mean ± SD)” value (3 mg/kg × 2 p.o., twice daily) was 6.0 ± 4.5, the “On day 0 (0-24 hours): number of ferrets” value (3 mg/kg × 2 p.o., twice daily) was 2/4 and the “On days 1-2(24-48 hours) … (mean ± SD)” value (3 mg/kg × 2 p.o., twice daily) was 145.0 ± 50.5 b. The “On days 1-2(24-48 hours): number” value (3 mg/kg × 2 p.o., twice daily) was 4/4, the “Total frequency of retching and vomiting” value (3 mg/kg × 2 p.o., twice daily) was 150.8 ± 53.1 b and the “Acute vomiting suppression ratio” value [4] was 83%. The “Delayed vomiting suppression ratio (24 to 72 hours after cisplatin dosing)” value [4] was 65%, the “Acute vomiting suppression ratio” value (10 mg/kg p.o., once daily) was 83 % NS and the “Delayed vomiting suppression ratio (0 to 72 hours after cisplatin dosing)” value (10 mg/kg p.o., once daily) was 70 % b. The “Delayed vomiting suppression ratio (24 to 72 hours after cisplatin dosing)” value (10 mg/kg p.o., once daily) was 65 % a, the “Duration (in hour; mean ± SD)” value (10 mg/kg p.o., once daily) was 51.4 ± 7.0 a hour and the “Effect on delayed vomiting induced by cisplatin (in words)” value (10 mg/kg p.o., once daily) was “prominently suppressed”. The “Latency (in hour; mean ± SD)” value (10 mg/kg p.o., once daily) was 16.2 ± 5.6 h, the “On day 0 (0-24 hours): frequency … (mean ± SD)” value (10 mg/kg p.o., once daily) was 19.0 ± 11.0 b and the “On day 0 (0-24 hours): number of ferrets” value (10 mg/kg p.o., once daily) was 3/4. For the same compound, the “On days 1-2(24-48 hours) … (mean ± SD)” value (10 mg/kg p.o., once daily) was 120.5 ± 5.0 a, the “On days 1-2(24-48 hours): number” value (10 mg/kg p.o., once daily) was 4/4 and the “Total frequency of retching and actual vomiting (on days 0-2; 0-72 hours)” value (10 mg/kg p.o., once daily) was 139.5 ± 8.3 b.
